Measured values published in the NIST ThermoML archive (doi:10.1021/je700260f).
Numbers after ± are expanded uncertainties.

Details: Liquid, Vibrating tube method

FC(C(F)(F)F)C(F)(F)F [1,1,1,2,3,3,3-heptafluoropropane]
Details	mass density [kg/m3]
313.15 K, 33848 kPa	1503.2 ± 1.7
313.15 K, 33888 kPa	1503.3 ± 1.7
313.15 K, 33928 kPa	1503.5 ± 1.7
313.15 K, 33981 kPa	1503.8 ± 1.7
313.15 K, 34027 kPa	1503.8 ± 1.7
313.15 K, 34060 kPa	1503.9 ± 1.7
313.15 K, 34100 kPa	1504 ± 1.7
313.15 K, 34136 kPa	1504.1 ± 1.7
313.15 K, 34171 kPa	1504.4 ± 1.7
313.15 K, 34201 kPa	1504.5 ± 1.7
313.15 K, 34232 kPa	1504.6 ± 1.7
313.15 K, 34269 kPa	1504.6 ± 1.7
313.15 K, 34305 kPa	1504.8 ± 1.7
313.15 K, 34336 kPa	1504.7 ± 1.7
313.15 K, 34374 kPa	1505 ± 1.7
313.15 K, 34408 kPa	1505.1 ± 1.7
313.15 K, 34430 kPa	1505.2 ± 1.7
313.15 K, 34451 kPa	1505.2 ± 1.7
313.15 K, 34461 kPa	1505.2 ± 1.7
313.15 K, 34473 kPa	1505.2 ± 1.7
313.15 K, 34482 kPa	1505.4 ± 1.7
313.15 K, 34489 kPa	1505.4 ± 1.7
313.16 K, 1420 kPa	1328.8 ± 1.5
313.16 K, 1448 kPa	1329.3 ± 1.5
313.16 K, 9648 kPa	1395.4 ± 1.5
313.16 K, 9676 kPa	1395.6 ± 1.5
313.16 K, 9701 kPa	1395.7 ± 1.5
313.16 K, 9733 kPa	1395.9 ± 1.5
313.16 K, 9768 kPa	1396.1 ± 1.5
313.16 K, 9796 kPa	1396.4 ± 1.5
313.16 K, 10034 kPa	1397.9 ± 1.5
313.16 K, 11599 kPa	1407.5 ± 1.5
313.16 K, 11650 kPa	1407.8 ± 1.5
313.16 K, 16202 kPa	1432.4 ± 1.6
313.16 K, 16267 kPa	1432.9 ± 1.6
313.16 K, 16535 kPa	1434.1 ± 1.6
313.16 K, 16676 kPa	1434.8 ± 1.6
313.16 K, 16775 kPa	1435.3 ± 1.6
313.16 K, 21124 kPa	1455.4 ± 1.6
313.16 K, 21173 kPa	1455.5 ± 1.6
313.16 K, 23260 kPa	1464.4 ± 1.6
313.16 K, 23309 kPa	1464.6 ± 1.6
313.16 K, 23346 kPa	1464.7 ± 1.6
313.16 K, 25084 kPa	1471.9 ± 1.6
313.16 K, 25125 kPa	1471.9 ± 1.6
313.16 K, 25173 kPa	1472.1 ± 1.6
323.13 K, 960 kPa	1272.4 ± 1.5
323.13 K, 990 kPa	1272.7 ± 1.5
323.13 K, 1310 kPa	1277.3 ± 1.5
323.13 K, 1540 kPa	1280.5 ± 1.5
323.13 K, 1600 kPa	1281.2 ± 1.5
323.13 K, 1800 kPa	1283.9 ± 1.5
323.13 K, 1820 kPa	1284.2 ± 1.5
323.13 K, 1840 kPa	1284.5 ± 1.5
323.13 K, 2040 kPa	1287.1 ± 1.5
323.13 K, 2060 kPa	1287.3 ± 1.5
323.13 K, 2080 kPa	1287.6 ± 1.5
323.13 K, 2100 kPa	1287.9 ± 1.5
323.13 K, 2120 kPa	1288.2 ± 1.5
323.13 K, 2140 kPa	1288.3 ± 1.5
323.13 K, 2160 kPa	1288.7 ± 1.5
323.13 K, 2180 kPa	1288.9 ± 1.5
323.13 K, 2190 kPa	1289.2 ± 1.5
323.13 K, 2220 kPa	1289.2 ± 1.5
323.13 K, 2230 kPa	1289.4 ± 1.5
323.13 K, 2250 kPa	1289.8 ± 1.5
323.13 K, 2270 kPa	1290 ± 1.5
323.13 K, 3000 kPa	1298.9 ± 1.5
323.13 K, 3030 kPa	1299.3 ± 1.5
323.13 K, 3090 kPa	1299.8 ± 1.5
323.13 K, 3110 kPa	1300.2 ± 1.5
323.13 K, 3130 kPa	1300.3 ± 1.5
323.13 K, 3150 kPa	1300.6 ± 1.5
323.13 K, 3180 kPa	1300.8 ± 1.5
323.13 K, 3200 kPa	1301.3 ± 1.5
323.13 K, 3230 kPa	1301.4 ± 1.5
323.13 K, 3250 kPa	1301.7 ± 1.5
323.13 K, 3270 kPa	1301.9 ± 1.5
323.13 K, 3290 kPa	1302.2 ± 1.5
323.13 K, 4770 kPa	1317.9 ± 1.5
323.13 K, 4790 kPa	1318.1 ± 1.5
323.13 K, 4820 kPa	1318.3 ± 1.5
323.13 K, 4850 kPa	1318.7 ± 1.5
323.13 K, 4880 kPa	1318.9 ± 1.5
323.13 K, 4900 kPa	1319.2 ± 1.5
323.13 K, 4920 kPa	1319.4 ± 1.5
323.13 K, 6440 kPa	1333.7 ± 1.5
323.13 K, 6489 kPa	1334.1 ± 1.5
323.13 K, 6508 kPa	1334 ± 1.5
323.13 K, 6533 kPa	1334.5 ± 1.5
323.13 K, 6605 kPa	1335.1 ± 1.5
323.13 K, 6623 kPa	1335.3 ± 1.5
323.13 K, 6650 kPa	1335.4 ± 1.5
323.13 K, 6668 kPa	1335.7 ± 1.5
323.13 K, 6696 kPa	1335.8 ± 1.5
323.13 K, 6716 kPa	1336 ± 1.5
323.13 K, 6734 kPa	1336.3 ± 1.5
323.13 K, 6759 kPa	1336.4 ± 1.5
323.13 K, 7026 kPa	1338.8 ± 1.5
323.14 K, 920 kPa	1271.8 ± 1.5
323.14 K, 940 kPa	1272.1 ± 1.5
323.14 K, 1020 kPa	1273.1 ± 1.5
323.14 K, 1040 kPa	1273.4 ± 1.5
323.14 K, 1060 kPa	1273.7 ± 1.5
323.14 K, 1070 kPa	1274.1 ± 1.5
323.14 K, 1090 kPa	1274.2 ± 1.5
323.14 K, 1110 kPa	1274.5 ± 1.5
323.14 K, 1130 kPa	1274.7 ± 1.5
323.14 K, 1140 kPa	1275.1 ± 1.5
323.14 K, 1170 kPa	1275.4 ± 1.5
323.14 K, 1180 kPa	1275.5 ± 1.5
323.14 K, 1200 kPa	1275.9 ± 1.5
323.14 K, 1220 kPa	1276 ± 1.5
323.14 K, 1240 kPa	1276.4 ± 1.5
323.14 K, 1260 kPa	1276.7 ± 1.5
323.14 K, 1290 kPa	1276.9 ± 1.5
323.14 K, 1330 kPa	1277.6 ± 1.5
323.14 K, 1350 kPa	1277.8 ± 1.5
323.14 K, 1370 kPa	1278.2 ± 1.5
323.14 K, 1390 kPa	1278.3 ± 1.5
323.14 K, 1410 kPa	1278.7 ± 1.5
323.14 K, 1420 kPa	1278.8 ± 1.5
323.14 K, 1450 kPa	1279.2 ± 1.5
323.14 K, 1470 kPa	1279.6 ± 1.5
323.14 K, 1500 kPa	1279.9 ± 1.5
323.14 K, 1520 kPa	1280.1 ± 1.5
323.14 K, 1550 kPa	1280.6 ± 1.5
323.14 K, 1580 kPa	1281.1 ± 1.5
323.14 K, 1610 kPa	1281.4 ± 1.5
323.14 K, 1630 kPa	1281.6 ± 1.5
323.14 K, 1640 kPa	1282 ± 1.5
323.14 K, 1670 kPa	1282.1 ± 1.5
323.14 K, 1690 kPa	1282.5 ± 1.5
323.14 K, 1710 kPa	1282.7 ± 1.5
323.14 K, 1730 kPa	1283.1 ± 1.5
323.14 K, 1750 kPa	1283.3 ± 1.5
323.14 K, 1780 kPa	1283.7 ± 1.5
323.14 K, 1860 kPa	1284.7 ± 1.5
323.14 K, 1880 kPa	1285 ± 1.5
323.14 K, 1900 kPa	1285.3 ± 1.5
323.14 K, 1920 kPa	1285.4 ± 1.5
323.14 K, 1940 kPa	1285.8 ± 1.5
323.14 K, 1960 kPa	1285.9 ± 1.5
323.14 K, 1980 kPa	1286.3 ± 1.5
323.14 K, 2000 kPa	1286.6 ± 1.5
323.14 K, 2020 kPa	1286.8 ± 1.5
323.14 K, 2290 kPa	1290.2 ± 1.5
323.14 K, 2310 kPa	1290.6 ± 1.5
323.14 K, 2330 kPa	1290.7 ± 1.5
323.14 K, 2350 kPa	1291 ± 1.5
323.14 K, 2380 kPa	1291.3 ± 1.5
323.14 K, 2390 kPa	1291.5 ± 1.5
323.14 K, 2410 kPa	1291.7 ± 1.5
323.14 K, 2430 kPa	1291.9 ± 1.5
323.14 K, 2450 kPa	1292.3 ± 1.5
323.14 K, 2480 kPa	1292.4 ± 1.5
323.14 K, 2500 kPa	1292.9 ± 1.5
323.14 K, 2530 kPa	1293.2 ± 1.5
323.14 K, 2560 kPa	1293.6 ± 1.5
323.14 K, 2570 kPa	1293.8 ± 1.5
323.14 K, 2600 kPa	1294 ± 1.5
323.14 K, 2610 kPa	1294.3 ± 1.5
323.14 K, 2630 kPa	1294.4 ± 1.5
323.14 K, 2650 kPa	1294.8 ± 1.5
323.14 K, 2670 kPa	1295 ± 1.5
323.14 K, 2830 kPa	1296.9 ± 1.5
323.14 K, 2890 kPa	1297.6 ± 1.5
323.14 K, 2920 kPa	1297.7 ± 1.5
323.14 K, 2940 kPa	1298.3 ± 1.5
323.14 K, 2960 kPa	1298.4 ± 1.5
323.14 K, 2980 kPa	1298.6 ± 1.5
323.14 K, 3060 kPa	1299.4 ± 1.5
323.14 K, 3310 kPa	1302.4 ± 1.5
323.14 K, 3340 kPa	1302.7 ± 1.5
323.14 K, 3360 kPa	1303 ± 1.5
323.14 K, 3380 kPa	1303.3 ± 1.5
323.14 K, 3410 kPa	1303.5 ± 1.5
323.14 K, 3440 kPa	1303.9 ± 1.5
323.14 K, 3470 kPa	1304.1 ± 1.5
323.14 K, 3480 kPa	1304.3 ± 1.5
323.14 K, 3510 kPa	1304.5 ± 1.5
323.14 K, 3530 kPa	1304.8 ± 1.5
323.14 K, 3550 kPa	1305 ± 1.5
323.14 K, 3570 kPa	1305.4 ± 1.5
323.14 K, 3600 kPa	1305.5 ± 1.5
323.14 K, 3640 kPa	1306.1 ± 1.5
323.14 K, 3660 kPa	1306.3 ± 1.5
323.14 K, 3680 kPa	1306.5 ± 1.5
323.14 K, 3700 kPa	1306.7 ± 1.5
323.14 K, 3720 kPa	1307 ± 1.5
323.14 K, 3750 kPa	1307.2 ± 1.5
323.14 K, 3770 kPa	1307.5 ± 1.5
323.14 K, 3790 kPa	1307.7 ± 1.5
323.14 K, 3810 kPa	1308 ± 1.5
323.14 K, 3840 kPa	1308.2 ± 1.5
323.14 K, 3860 kPa	1308.5 ± 1.5
323.14 K, 3880 kPa	1308.7 ± 1.5
323.14 K, 3900 kPa	1309 ± 1.5
323.14 K, 3920 kPa	1309.1 ± 1.5
323.14 K, 3950 kPa	1309.4 ± 1.5
323.14 K, 3970 kPa	1309.8 ± 1.5
323.14 K, 4000 kPa	1309.9 ± 1.5
323.14 K, 4020 kPa	1310.2 ± 1.5
323.14 K, 4040 kPa	1310.3 ± 1.5
323.14 K, 4070 kPa	1310.7 ± 1.5
